Measured values published in ChEMBL document CHEMBL5257080, “Optimization of physicochemical properties of pyrrolidine GPR40 AgoPAMs results in a differentiated profile with improved pharmacokinetics and reduced off-target activities” (Bioorg Med Chem, 2023).
≈ marks a conversion by molar mass, not a printed value. Calls of active or inactive are those of the source. No cut-off for these calls is given here.

Key:
[1] = Tmax in rat at 400 mg/kg bid; format: ADME, organism-based; conditions: in vivo
[2] = Toxicity in Sprague-Dawley rat assessed as effect on pancrease at 300 mg/kg, po measured for 1 months; format: organism-based; conditions: in vivo, 730 h
[3] = target: T1, Cytochrome P450 2C8 (Homo sapiens, UniProt P10632); experiment: Inhibition of CYP2C8 in human liver microsomes; format: ADME, Microsome
T1 sequence (P10632 whole entry): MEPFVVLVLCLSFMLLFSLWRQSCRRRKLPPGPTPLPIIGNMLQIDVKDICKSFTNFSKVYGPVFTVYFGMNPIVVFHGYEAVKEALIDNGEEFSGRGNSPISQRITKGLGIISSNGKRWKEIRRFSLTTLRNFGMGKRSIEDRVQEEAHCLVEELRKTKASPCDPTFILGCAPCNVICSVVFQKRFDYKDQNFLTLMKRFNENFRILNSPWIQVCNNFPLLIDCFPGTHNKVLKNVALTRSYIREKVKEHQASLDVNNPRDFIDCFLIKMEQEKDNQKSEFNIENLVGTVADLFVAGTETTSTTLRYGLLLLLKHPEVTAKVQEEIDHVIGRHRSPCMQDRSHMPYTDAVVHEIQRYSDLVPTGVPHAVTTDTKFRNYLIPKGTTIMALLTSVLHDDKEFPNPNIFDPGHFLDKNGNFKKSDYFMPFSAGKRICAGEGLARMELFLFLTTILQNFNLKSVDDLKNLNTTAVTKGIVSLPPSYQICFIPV

[4] = target: T2, Cytochrome P450 2B6 (Homo sapiens, UniProt P20813); experiment: Inhibition of CYP2B6 in human liver microsomes; format: ADME, Microsome
T2 sequence (P20813 whole entry): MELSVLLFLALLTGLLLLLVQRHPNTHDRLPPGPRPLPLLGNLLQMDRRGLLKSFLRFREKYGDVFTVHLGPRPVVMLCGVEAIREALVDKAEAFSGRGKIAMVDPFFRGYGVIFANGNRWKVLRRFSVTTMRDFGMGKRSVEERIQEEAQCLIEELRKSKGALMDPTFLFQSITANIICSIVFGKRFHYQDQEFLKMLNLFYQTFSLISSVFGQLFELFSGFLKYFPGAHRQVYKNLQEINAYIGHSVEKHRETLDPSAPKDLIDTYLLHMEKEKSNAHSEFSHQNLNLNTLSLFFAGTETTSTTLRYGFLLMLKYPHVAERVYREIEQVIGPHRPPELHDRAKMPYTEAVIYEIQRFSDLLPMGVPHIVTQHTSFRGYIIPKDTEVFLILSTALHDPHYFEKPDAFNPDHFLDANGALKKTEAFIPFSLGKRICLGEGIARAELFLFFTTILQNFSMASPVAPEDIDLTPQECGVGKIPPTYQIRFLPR

[5] = Toxicity in Sprague-Dawley rat assessed as decrease in islet number at 300 mg/kg, po measured for 1 months; format: organism-based; conditions: in vivo, 730 h
[6] = Solubility of the compound in FeSSIF at pH 6.5; format: ADME
[7] = target: Cytochrome P450 2C19 (Homo sapiens, UniProt P33261); experiment: Inhibition of CYP2C19 in human liver microsomes; format: ADME, Microsome
Cytochrome P450 2C19, sequence (P33261 whole entry): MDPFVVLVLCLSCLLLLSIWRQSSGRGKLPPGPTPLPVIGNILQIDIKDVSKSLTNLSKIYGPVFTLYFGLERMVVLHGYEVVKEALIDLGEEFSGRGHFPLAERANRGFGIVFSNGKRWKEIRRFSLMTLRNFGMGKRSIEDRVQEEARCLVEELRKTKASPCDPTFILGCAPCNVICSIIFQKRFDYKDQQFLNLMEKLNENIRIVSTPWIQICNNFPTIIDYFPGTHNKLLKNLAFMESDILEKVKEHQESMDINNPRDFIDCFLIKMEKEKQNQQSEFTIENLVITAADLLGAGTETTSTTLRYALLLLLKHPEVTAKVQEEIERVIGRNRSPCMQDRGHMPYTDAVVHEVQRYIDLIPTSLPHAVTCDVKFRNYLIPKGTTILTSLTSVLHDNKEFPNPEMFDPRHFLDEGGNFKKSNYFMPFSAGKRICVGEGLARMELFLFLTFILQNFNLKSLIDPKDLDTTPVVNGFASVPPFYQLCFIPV

[8] = tested on: Rattus norvegicus; experiment: Anti-hyperglycemic activity against Sprague-Dawley rat assessed as reduction in plasma glucose AUC at 0.3 mg/kg, po measured for 20 to 120 mins by OGTT analysis; format: functional, organism-based; conditions: time lower 20.0 min, time upper […]
[9] = Cmax in rat at 400 mg/kg bid; format: ADME, organism-based; design: dose 400 mg/kg; conditions: in vivo
[10] = Tmax in rat at 160 mg/kg bid; format: ADME, organism-based; conditions: in vivo
[11] = Permeability of compound across apical to basolateral side in dog MDCK cells; format: ADME, cell-based, Canis lupus familiaris; conditions: read-out: permeability
[12] = Toxicity in cynomolgus monkey assessed as effect on pancrease at 30 mg/kg, po measured for 1 months; format: organism-based, Macaca fascicularis; conditions: in vivo, 730 h
[13] = Cmax in rat at 160 mg/kg bid; format: ADME, organism-based; design: dose 160 mg/kg; conditions: in vivo
[14] = Toxicity in Sprague-Dawley rat assessed as islet cell cytoplasmic alteration at 60 mg/kg, po measured for 1 months; format: organism-based; conditions: in vivo, 730 h
[15] = Toxicity in Sprague-Dawley rat assessed as decrease in islet size at 300 mg/kg, po measured for 1 months; format: organism-based; design: scale not given: the % may be the effect or the level left; conditions: in vivo, 730 h
[16] = Tmax in rat at 40 mg/kg bid; format: ADME, organism-based; conditions: in vivo
[17] = Toxicity in rat assessed as NOAEL by measuring AUC (0 to 24 hrs) measured for 28 days; conditions: in vivo, time 28 day
[18] = target: Cytochrome P450 2C9 (Homo sapiens, UniProt P11712); experiment: Inhibition of CYP2C9 in human liver microsomes; format: ADME, Microsome
Cytochrome P450 2C9, sequence (P11712 whole entry): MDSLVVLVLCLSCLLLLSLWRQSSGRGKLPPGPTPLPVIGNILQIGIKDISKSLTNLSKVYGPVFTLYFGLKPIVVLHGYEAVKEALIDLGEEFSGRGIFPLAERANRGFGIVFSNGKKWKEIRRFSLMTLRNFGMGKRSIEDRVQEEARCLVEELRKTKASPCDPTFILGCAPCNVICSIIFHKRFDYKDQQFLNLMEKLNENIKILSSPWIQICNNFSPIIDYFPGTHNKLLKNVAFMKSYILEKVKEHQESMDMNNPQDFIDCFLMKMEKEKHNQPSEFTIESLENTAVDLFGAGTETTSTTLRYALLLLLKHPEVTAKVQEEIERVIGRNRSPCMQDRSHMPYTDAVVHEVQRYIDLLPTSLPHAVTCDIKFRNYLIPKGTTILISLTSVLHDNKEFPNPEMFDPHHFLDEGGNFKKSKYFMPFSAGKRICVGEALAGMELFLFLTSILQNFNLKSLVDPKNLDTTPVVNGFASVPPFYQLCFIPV

[19] = Toxicity in Sprague-Dawley rat assessed as effect on pancrease at AUC measured for 1 months; conditions: in vivo, 730 h
[20] = target: Cytochrome P450 3A4 (Homo sapiens, UniProt P08684); experiment: Inhibition of CYP3A4 in human liver microsomes; format: ADME, Microsome
Cytochrome P450 3A4, sequence (P08684 whole entry): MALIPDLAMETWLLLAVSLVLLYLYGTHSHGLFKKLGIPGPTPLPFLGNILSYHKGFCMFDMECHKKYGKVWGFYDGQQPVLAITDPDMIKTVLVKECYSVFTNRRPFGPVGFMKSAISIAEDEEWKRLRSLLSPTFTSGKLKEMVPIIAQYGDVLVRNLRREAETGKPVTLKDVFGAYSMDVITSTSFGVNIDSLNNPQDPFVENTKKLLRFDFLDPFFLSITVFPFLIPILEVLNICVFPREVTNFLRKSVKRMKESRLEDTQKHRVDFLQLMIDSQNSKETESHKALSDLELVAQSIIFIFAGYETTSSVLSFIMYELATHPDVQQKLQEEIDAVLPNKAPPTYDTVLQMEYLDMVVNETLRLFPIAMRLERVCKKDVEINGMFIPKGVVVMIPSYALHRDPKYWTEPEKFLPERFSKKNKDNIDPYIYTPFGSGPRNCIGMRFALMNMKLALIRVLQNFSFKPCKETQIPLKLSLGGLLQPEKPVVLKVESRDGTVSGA

[21] = Solubility of the compound in FaSSIF at pH 6.5; format: ADME
[22] = target: Free fatty acid receptor 1 (Homo sapiens, UniProt O14842); experiment: Positive allosteric modulation of human GPR40 expressed in HEK293 cells assessed as cAMP accumulation; format: cell-based
Free fatty acid receptor 1, sequence (O14842 whole entry): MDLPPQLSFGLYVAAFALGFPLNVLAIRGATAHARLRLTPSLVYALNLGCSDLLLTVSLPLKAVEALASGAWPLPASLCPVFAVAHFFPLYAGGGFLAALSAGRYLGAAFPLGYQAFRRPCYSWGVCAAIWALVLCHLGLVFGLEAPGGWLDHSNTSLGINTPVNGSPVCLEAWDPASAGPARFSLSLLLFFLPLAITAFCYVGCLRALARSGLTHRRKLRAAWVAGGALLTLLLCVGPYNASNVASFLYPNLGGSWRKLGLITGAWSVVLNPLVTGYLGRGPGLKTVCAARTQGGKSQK

[23] = AUC (0 to 24 hrs) in rat at 150 mg/kg, po bid; format: ADME, organism-based; design: dose 150 mg/kg, route po; conditions: in vivo
[24] = tested on: Rattus norvegicus; experiment: Hyperglycemic activity in Sprague-Dawley rat assessed as effect on blood glucose level at 150 mg/kg, qd by glucometer; format: functional, organism-based
[25] = AUC (0 to 24 hrs) in rat at 400 mg/kg bid; format: ADME, organism-based; design: dose 400 mg/kg; conditions: in vivo
[26] = Solubility of the compound in FeSSIF at pH 5; format: ADME
[27] = target: Cytochrome P450 2D6 (Homo sapiens, UniProt P10635); experiment: Inhibition of CYP2D6 in human liver microsomes; format: ADME, Microsome
Cytochrome P450 2D6, sequence (P10635 whole entry): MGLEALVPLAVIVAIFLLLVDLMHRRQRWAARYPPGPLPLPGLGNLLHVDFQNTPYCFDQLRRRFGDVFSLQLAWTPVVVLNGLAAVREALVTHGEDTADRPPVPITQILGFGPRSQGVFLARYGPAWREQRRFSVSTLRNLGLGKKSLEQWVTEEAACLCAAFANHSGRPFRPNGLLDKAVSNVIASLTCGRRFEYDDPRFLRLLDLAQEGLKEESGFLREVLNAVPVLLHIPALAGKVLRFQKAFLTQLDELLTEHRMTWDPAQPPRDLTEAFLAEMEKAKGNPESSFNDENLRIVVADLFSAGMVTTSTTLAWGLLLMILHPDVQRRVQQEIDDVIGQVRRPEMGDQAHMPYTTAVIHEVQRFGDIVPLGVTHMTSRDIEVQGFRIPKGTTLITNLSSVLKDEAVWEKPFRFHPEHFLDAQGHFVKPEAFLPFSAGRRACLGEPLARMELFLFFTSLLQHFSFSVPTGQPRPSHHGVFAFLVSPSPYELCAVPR

[28] = AUC (0 to 24 hrs) in rat at 40 mg/kg bid; format: ADME, organism-based; design: dose 40 mg/kg; conditions: in vivo
[29] = Solubility in phosphate buffer at pH 6.5; format: physicochemical
[30] = Cmax in rat at 40 mg/kg bid; format: ADME, organism-based; design: dose 40 mg/kg; conditions: in vivo
[31] = AUC (0 to 24 hrs) in rat at 160 mg/kg bid; format: ADME, organism-based; design: dose 160 mg/kg; conditions: in vivo

Tmax [1]: 8 h
IC50 [3]: 1.7 µM
IC50 [4]: 8.1 µM
solubility [6]: 59 µg/mL (≈ 109 µM)
IC50 [7]: 38 µM
Cmax [9]: 271 µM
Tmax [10]: 8 h
Papp A→B [11]: 14.2 ×10⁻⁶ cm/s
Cmax [13]: 106 µM
Tmax [16]: 8 h
IC50 [18]: 14 µM
IC50 [20]: 3.4 µM
solubility [21]: 9 µg/mL (≈ 16.6 µM)
EC50 [22]: 3.6 µM
AUC [23]: 557 µM·h
AUC [25]: 3370 µM·h
solubility [26]: 8 µg/mL (≈ 14.8 µM)
IC50 [27]: 40 µM
AUC [28]: 549 µM·h
solubility [29]: 1 µg/mL (≈ 1.85 µM)
Cmax [30]: 64 µM
AUC [31]: 1100 µM·h
SMILES: COc1cc(N2CC[C@@H](Oc3ccc(N4N=C(C(F)(F)F)[C@@H](C)[C@@H]4CC(=O)O)cc3)[C@H](C)C2)c(Cl)cn1
Activity [2]: Non-Toxic
Activity [5]: Toxic
Activity [8]: inactive
Activity [12]: Non-Toxic
Activity [14]: Toxic
Activity [15]: 50%
AUC at […] [17]: 404 µM·h
Activity [19]: Non-Toxic
Activity [24]: Active
